We go through one substance from patent publication US10139394B2, “Method for controlling cancer metastasis or cancer cell migration by modulating the cellular level of lysyl tRNA synthetase” (Medicinal Bioconvergence Research Center, priority 2008, dated 2018).

The subject of experiment [1] is KRS and EPRS. Briefly: Co-immunoprecipitation of KRS with EPRS (multi-ARS complex). It counts as cell-based. The conditions noted are these: A549 cells; absence of LY compound; FIG. 12. Here is the method:
In FIG. 7, A549 cells were treated with laminin (10 ug/ml) and the level of 67LR, 37LRP and KRS was determined by Western blotting at the indicated times. Hsp90 and Cadherin were used as markers for cytoplasm and membrane, respectively. In FIG. 8, A549 cells untreated or treated with laminin for 1 h were subjected to immunofluorescence staining with anti-67LR (MLuC5, Santacruz, sc-59732) (red) and -KRS antibodies (green). In FIG. 9, A549 cells were treated with U73122 (U), staurosporin (ST) and LY294002 (LY) that inhibit PLC-gamma, PKC and PI3K, respectively, for 3 hr, then with laminin for 1 hr and checked how these kinase inhibitors would affect the membrane and cytoplasmic level of 67LR and KRS. In FIG. 10, A549 cells were transfected with Myc-KRS and incubated for 24 h. The cells were treated with the indicated chemicals and then with laminin as above. Myc-KRS was immunoprecipitated, and immunoblotted with anti-p-Thr, -Ser, and -Tyr antibodies. In FIG. 11, A549 cells were transfected with Myc-KRS and cultivated for 24 hr. The transfectants were pre-treated with LY294002 for 3 hr and then treated with laminin for 1 h. Myc-KRS was immunoprecipitated and co-precipitation of 67LR was determined by Western blotting. […] EPRS (glutamyl-prolyl-tRNA synthetase) was immunoprecipitated with its specific antibody (AbCam), and co-immunoprecipitation of KRS was determined by Western blotting (upper). […]

For experiment [2], the system named is membrane translocation of KRS. The experiment in a line: Laminin-dependent membrane translocation of KRS and 67LR, cell fractionation and Western blotting. In kind it is cell-based. The conditions noted are these: A549 cells; laminin 10 ug/ml, time course; FIG. 7. Here is the method:
In FIG. 7, A549 cells were treated with laminin (10 ug/ml) and the level of 67LR, 37LRP and KRS was determined by Western blotting at the indicated times. Hsp90 and Cadherin were used as markers for cytoplasm and membrane, respectively. In FIG. 8, A549 cells untreated or treated with laminin for 1 h were subjected to immunofluorescence staining with anti-67LR (MLuC5, Santacruz, sc-59732) (red) and -KRS antibodies (green). In FIG. 9, A549 cells were treated with U73122 (U), staurosporin (ST) and LY294002 (LY) that inhibit PLC-gamma, PKC and PI3K, respectively, for 3 hr, then with laminin for 1 hr and checked how these kinase inhibitors would affect the membrane and cytoplasmic level of 67LR and KRS. In FIG. 10, A549 cells were transfected with Myc-KRS and incubated for 24 h. The cells were treated with the indicated chemicals and then with laminin as above. Myc-KRS was immunoprecipitated, and immunoblotted with anti-p-Thr, -Ser, and -Tyr antibodies. In FIG. 11, A549 cells were transfected with Myc-KRS and cultivated for 24 hr. The transfectants were pre-treated with LY294002 for 3 hr and then treated with laminin for 1 h. Myc-KRS was immunoprecipitated and co-precipitation of 67LR was determined by Western blotting. IgG was used as a control for immunoprecipitation. In FIG. 12, A549 cells were cultivated in the absence and presence of laminin and LY294002 as indicated. EPRS (glutamyl-prolyl-tRNA synthetase) was immunoprecipitated with its specific antibody (AbCam), and co-immunoprecipitation of KRS was determined by Western blotting (upper). The immune-depleted supernatant (ID) were subjected to Western blottingting with anti-KRS and -EPRS antibodies.
The cells were lysed with 20 mM Tris-HCl (pH 7.4) buffer containing 150 mM NaCl, 0.5% TritonX-100, 0.1% SDS, and protease inhibitor. The protein extracts were incubated with normal IgG and protein G agarose for 2 hr and then centrifuged to remove nonspecific IgG binding proteins. […]
For orientation: A western blot detects proteins with antibodies after separation by electrophoresis.

For the substance “laminin: laminin (Engelbreth-Holm-Swarm murine sarcoma) from Sigma”, the “association of KRS with EPRS” value in experiment [1] is recorded as “decreased”. The “membrane level of KRS and 67LR” value in experiment [2] is listed as “gradually increased”.
